The test system of data set [1] is HL-60 (promyelocytic leukemia). Nature of the data set: Sulforhodamine B cytotoxicity assay, HL-60. Type of data set: cell-based. The note with it: Homo sapiens, transformed, 72 hours. On the procedure: (§1) 1. Preparation of target cells in 96-well plates
(§2) 2. Preparation of sample drugs and toxic control a. Stock drug solutions were prepared by dissolving drug in the appropriate solvent (determined during chemical characterization studies) and sterile filtering the drug-solvent solution through a sterile 0.2 μ filter unit. An aliquot was taken from each filtered drug solution and the O.D. was measured to determine the drug concentration. […]
(§3) b. Dilute the stock drug solution prepared above with T.C. medium to the desired initial concentration (10^-2 -10^-4 M). A minimum volume of 220 μL of diluted drug is required per 96-well plate used in the assay.
(§4) 3. Addition of Sample Compounds and Controls to 96-well Plates b. Add 100 μL of the initial .compound dilution to adjacent duplicate wells in Columns #2. (Four materials can be tested in duplicate per 96-well plate.) c. Remove 10 μL of diluted compound from the wells in Column #2 and transfer to the corresponding wells in Column #3. Mix by pipetting up and down gently approximately five times. d. Transfer 10 μL to the appropriate wells in Column #4 and continue to make […] dilutions of compound across the plate through Column #12. f. Incubate (37° C., 5-10 percent CO2 in humidified incubator) plates for a total of 72 hours. […]
(§5) IC50 values; i.e., the concentration of Compound required to kill one-half of the treated cells, were then calculated. […]
On the technique in general: The SRB assay estimates cell density from bound dye.

Data set [2] deals with HT-29 (colon carcinoma). The data set is described as follows: Sulforhodamine B cytotoxicity assay, HT-29. In kind it is cell-based. To be noted: Homo sapiens, transformed, 72 hours. On the procedure: as §1, §2, §3, §4, §5
For data set [3], the system named is MCF-7 (breast carcinoma). Nature of the data set: Sulforhodamine B cytotoxicity assay, MCF-7. In kind it is cell-based. The note with it: Homo sapiens, MCF7, transformed, 72 hours. How it is done: as §1, §2, §3, §4, §5
Data set [4] has as its system MOLT-4 (T cell leukemia). The data set is described as follows: Sulforhodamine B cytotoxicity assay, MOLT-4. Type of data set: cell-based. To be noted: Homo sapiens, transformed, 72 hours. How it is done:
as §1, §2, §3, §4, §5

The test system of data set [5] is SK-Mel-28 (melanoma). Nature of the data set: Sulforhodamine B cytotoxicity assay, SK-Mel-28. To be noted: Homo sapiens, transformed, 72 hours. In kind it is cell-based. How it is done:
as §1, §2, §3, §4, §5

Data set [6] has as its system Copan-1 (pancreatic carcinoma). The data set is described as follows: Sulforhodamine B cytotoxicity assay, Copan-1. Type of data set: cell-based. To be noted: transformed, 72 hours. On the procedure:
as §1, §2, §3, §4, §5

The test system of data set [7] is P-388 (mouse leukemia). Nature of the data set: Sulforhodamine B cytotoxicity assay, P-388. Type of data set: cell-based. The note with it: P388, transformed, 72 hours. On the procedure: as §1, §2, §3, §4, §5
Data set [8] concerns Ovcar-3 (ovarian carcinoma). Nature of the data set: Sulforhodamine B cytotoxicity assay, Ovcar-3. Type of data set: cell-based. The note with it: Homo sapiens, transformed, 72 hours. How it is done: as §1, §2, §3, §4, §5
The subject of data set [9] is UCLA-P3 (lung carcinoma). The data set is described as follows: Sulforhodamine B cytotoxicity assay, UCLA-P3. To be noted: Homo sapiens, UCLA P-3, transformed, 72 hours. In kind it is cell-based. How it is done:
as §1, §2, §3, §4
(§6) IC50 values; i.e., the concentration of Compound required to kill one-half of the treated cells, were then calculated.

Data set [10] has as its system HMEC (human mammary epithelial cells). The data set is described as follows: Sulforhodamine B cytotoxicity assay, HMEC. To be noted: non-transformed, 72 hours. In kind it is cell-based. How it is done: as §1, §2, §3, §4, §6
Data set [11] concerns NHDF (normal human dermal fibroblasts). The data set is described as follows: Sulforhodamine B cytotoxicity assay, NHDF. Type of data set: cell-based. To be noted: non-transformed, 72 hours. On the procedure:
as §1, §2, §3, §4, §6

The test system of data set [12] is CHO cells. The data set is described as follows: Sulforhodamine B cytotoxicity assay, CHO. In kind it is cell-based. To be noted: Cricetulus griseus, non-transformed, 72 hours. On the procedure:
as §1, §2, §3, §4, §5

In data set [13] the test system is PBL (human peripheral blood lymphocytes). The data set is described as follows: Sulforhodamine B cytotoxicity assay, PBL. Type of data set: cell-based. To be noted: Lymphocyte, non-transformed, 72 hours. How it is done: as §1, §2, §3, §4, §6
The test system of data set [14] is transformed, cancerous cell lines. Nature of the data set: Cytotoxicity comparison with daunomycin, cancer cell lines. In kind it is cell-based. On the procedure:
SULFORHODAMINE B CYTOTOXICITY ASSAY
as §6
All other cells or cell lines were obtained from the American Type Culture Collection (ATCC) (all except CHO cells are human or mouse cancer cell lines as described by the ATCC).

The nature of data set [15]: LD50 in mice. The note with it: mouse, in vivo, ip, here found. How it is done: Daunomycin has a reported LD50 in mice of 20 mg/kg when administered intravenously (i.v.) and 5 mg/kg when administered intraperitoneally (i.p.) [Merck Index, 11th ed., Merck & Co., Inc., Rahway, N.J., page 445 (1989)].
Data set [16] concerns EMT-6 mammary tumor cells. Nature of the data set: In vivo mouse study, EMT-6 mammary tumor. On the procedure: FIG. 1 is a graph showing the average tumor size in 6-10 week old female Balb/c BYJ mice inoculated with EMT-6 mammary tumor cells. Control mice (open squares) were treated with normal saline on days 1, 5 and 9 after inoculation. Study mice (X's) were treated with an equal volume of normal saline containing 15 mg/kg of Compound I on those same days post inoculation with the tumor cells.
The data of FIG. 1 illustrate an in vivo study using Compound 1. Here, groups of 6-10 week old, female Balb/c BYJ mice (obtained from The Scripps Research Institute breeding colony, La Jolla, Calif.) (8 per group) were inoculated with 5×10^5 cells of the EMT6 tumor cell line, a mammary tumor. The mice were then treated with normal saline (control) or normal saline containing 15 mg/kg of Compound 1 (study) on days 1, 5 and 9 after the inoculation.
The average tumor volume was then calculated for each group of mice.

The test system of data set [17] is mice. To be noted: i.v., Merck Index; cited from earlier work.
Setting [18] is: first four cancer cell lines (two leukemias and two carcinomas).

Molecules are shown by their SMILES. pIC50: −log10 of the molar value. A value given as a limit tells only on which side of the number the result lay.

Take `COc1cccc2c1C(=O)c1c(O)c3c(c(O)c1C2=O)C[C@@](O)(C(C)=O)C[C@@H]3O[C@H]1C[C@H](NC(=O)OCCS(=O)(=O)c2ccccc2)[C@H](O)[C@H](C)O1` [Compound 1, 8-Acetyl-10-[[3-[N-[2-(phenylsulfonyl)-ethoxycarbonyl]]amino-2,4,6-trideoxy-1-lyxo-hexapyranosyl]oxy]-7,8,9,10-tetrahydro-6,8,11-trihydroxy-1-methoxy-5,12-naphthacenedione]: the pIC50 was 7.01 in [1]; 6.11 in data set [2]; 6.11 in [3]; 9.00 in [4]; 5.51 in data set [5]; 6.11 in data set [6]. For the same compound, the pIC50 was 6.11 in [7]; 5.80 in data set [8]; 5.51 in [9]; 4.89 in data set [10]; 4.89 in [11]; 5.20 in data set [12]. In data set [13], the pIC50 was 4.60. For the same compound, the “cancer cell cytotoxicity difference between Compound 1 and daunomycin” value in data set [14] (cancer cells) was “no difference to a four-fold difference”. Also, the “potency relative to daunomycin” value is on record as “about one-fourth the potency of daunomycin” in data set [14] (final two carcinoma cell lines); “same potencies” in data set [14] (setting [18]); “about one-half the potency of daunomycin” in data set [14] (second three cancer cell lines (melanoma, pancreatic carcinoma and mouse leukemia)). The compound further registered an LD50 in data set [15] of around 35 mg/kg. Also, in data set [16] (15 mg/kg on days 1, 5 and 9, between days 14 and 16), the “tumor burden of treated mice vs control” value is recorded as “about one-third the tumor burden of the control group”. Moreover, the “average tumor volume vs control” value in data set [16] (15 mg/kg on days 1, 5 and 9, by day 8 post inoculation) is reported as “slight difference in the average volume of the tumors, with the study group having a lower tumor burden”. For the same compound, in data set [16] (15 mg/kg on days 1, 5 and 9, by day 20 post inoculation), the “control group's average tumor volume relative to study group” value is given as “about twice that of the study group”. In addition, the “growth of mammary tumors” value in data set [16] (EMT-6 implanted in mice) is “retarded the growth of mammary tumors”.

As to `COc1cccc2c1C(=O)c1c(O)c3c(c(O)c1C2=O)C[C@@](O)(C(C)=O)C[C@@H]3O[C@H]1C[C@H](N)[C@H](O)[C@H](C)O1` [Daunomycin], the pIC50 was above 7.01 in [1]; 6.11 in [2]; 6.11 in data set [3]; 9.00 in [4]; 5.80 in [5]; 6.41 in [6]. Further, the pIC50 in data set [7] was 6.41; in [8], 6.41; in data set [9], 6.14; in data set [10], 6.41; in data set [11], 6.72; in [12], 6.41. In addition, in data set [13], the pIC50 was 6.11. Also, the “potency relative to daunomycin” value in data set [14] (setting [18]) is recorded as “same potencies”. Also, the LD50 is around 12 mg/kg in [15] and 20 mg/kg in data set [17].

A word on the pIC50: it is the negative decadic logarithm of the IC50, by convention in mol/L. The low end stands for a large IC50, the high end for a small IC50. A word on the LD50: it is the dose expected to kill half of the subjects tested.

These data come from patent US5643887A, “Daunomycin derivative with reduced cytotoxicity toward normal cells” (The Scripps Research Institute, priority 1995, dated 1997).
